According to article PMC7954794, “Protein context shapes the specificity of SH3 domain-mediated interactions in vivo” (Nature Communications, 2021):

Tested on: 575 putative partners (preys) of 22 WT SH3-containing proteins
Test: DHFR-PCA on solid medium, WT and SH3-deleted baits (Fig. 1B)
Type: cell-based, Saccharomyces cerevisiae
Design: key to Score: 0: SH3-independent; 1: SH3-dependent PPIs; 2: SH3-inhibited PPIs
Settings: for SH3-dependent PPIs: number of PPIs, SH3 domain in its own protein, DHFR-PCA, Fig2D,S2F
Summary of the method: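 In S. cerevisiae, 22 SH3-containing baits fused genomically to DHFR F[1,2], either WT or with each SH3 replaced via CRISPR by a poly-Gly/Ser linker, screened against 575 DHFR F[3] preys plus 40 negative controls in 1536 arrays, preys duplicated at randomized positions.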

Substance | SH3-dependent PPIs | medrep (log2 median colony size normalized to plate background, PCA score) (bait SLA1-3, DHFR-PCA, label = prey, Replicates 4 (2 for YCR009C, YDR388W, YIL033C)) | Score (bait SLA1-3, label = prey)
CDC25 | 3 | – | –
RVS167 | 31 | – | –
YAL005C | – | 5.601 | 0
